Results taken from patent US5061711A, “Method of curing liver diseases by using pyrrolo quinoline quinone triesters and novel pyrrolo quinoline quinone triesters” (Mitsubishi Gas Chemical Company, Inc., priority 1989, dated 1991).

Assays:
male mice SPF-ICR = experiment: Acute toxicity test; conditions: mouse, in vivo
Protocol: To male mice SPF-ICR five weeks old (supplied by Japan Charles River Co.) were intraperitoneally administered PQQ.2Na, PQQ trimethyl ester and PQQ triallyl ester at dosages of 40, 80, 160 and 200 mg per kg of body weight of mouse, respectively and they were bred for 14 days at 25° C. One group consisted of 8 mice. For administration, PQQ.2Na was dissolved in physiological saline and PQQ trimethyl ester and PQQ triallyl ester were suspended in 1%Tween 80-containing physiological saline, respectively.

[1] = system: carbon tetrachloride (CCl4)-induced liver diseases; experiment: Pharmacological activity (1) on carbon tetrachloride (CCl4)-induced liver diseases; type: in vivo, SD rats; conditions: i.p. 5 mg/kg rat twice, CCl4 1 ml/kg rat, 24 hours, average of five rats; for Total bilirubin in serum: CCl4 alone 1.2; for GPT in serum: CCl4 alone 818; for GOT in serum: CCl4 alone 3308
Protocol: Pharmacological activity (1) of PQQ triesters on carbon tetrachloride (CCl4)-induced liver diseases:
Twenty SD rats (male, 7 weeks old, body weight: about 220 g; supplied by Japan Charles River Co.) were divided to four groups (A-D) each consisting of five rats. All rats were fasted for 16 hours and 1.1 ml of a solution containing 1 mg/ml of PQQ trimethyl ester was intraperitoneally administered to the rats of group C and 1.1 ml of a solution containing 1 mg/ml of PQQ triallyl ester was intraperitoneally administered to the rats of group D and after lapse of 40 minutes, the same PQQ triesters in the same dose as above was intraperitoneally administered, respectively. For administration, the PQQ triesters were suspended in physiological saline containing 1 % Tween 80, 1.1 ml of physiological saline was intraperitoneally administered to the rats of group B in place of PQQ triesters. Furthermore, after 20 minutes, 2.2 ml of 10 vol% carbon tetrachloride (solution in olive oil) was administered to stomach of the rats of groups B-D. Neither PQQ triesters nor carbon tetrachloride were administered to the rats of group A.
After 24 hours from administration of carbon tetrachloride, blood was collected from abdominal main artery and serum was obtained by centrifugation therefrom.
GPT, GOT and amount of total bilirubin in the serum were measured by clinical examination reagent (trademark: FUJI DRYCHEMSLIDE manufactured by Fuji Photo Film Co., Ltd.). The results are shown in Table 5 by average value of five rats.

[2] = system: D-galactosamine-induced liver diseases; experiment: Pharmacological effect (1) on D-galactosamine-induced liver diseases; type: in vivo, SD rats; conditions: D-galactosamine 1 g/kg rat s.c., 23 hours, average of five rats; for Total bilirubin in serum: D-galactosamine alone 1.0; for GPT in serum: D-galactosamine alone 552; for GOT in serum: D-galactosamine alone 1067
Protocol: Pharmacological effect (1) of PQQ triesters on D-galactosamine-induced liver diseases;
Forty SD rats (male 7 weeks old, body weight: about 240 g; supplied by Japan Charles River Co.) were divided to eight groups (A-H) each consisting of five rats. All rats were fasted for 16 hours and 1.2 ml of a solution containing 0.4 mg/ml of PQQ trimethyl ester was intraperitoneally administered to the rats of group C, 1.2 ml of a solution containing 1.0 mg/ml of PQQ trimethyl ester was intraperitoneally administered to the rats of group D, 1.2 ml of a solution containing 2.0 mg/ml of PQQ trimethyl ester was intraperitoneally administered to the rats of group E, 1.2 ml of a solution containing 0.4 mg/ml of PQQ triallyl ester was intraperitoneally administered to the rats of group F, 1.2 ml of a solution containing 1.0 mg/ml of PQQ triallyl ester was intraperitoneally administered to the rats of group G, and 1.2 ml of a solution containing 2.0 mg/ml of PQQ triallyl ester was intraperitoneally administered to the rats of group H and furthermore, after 40 minutes, the same PQQ triesters in the same doses as above were intraperitoneally administered to respective rats. In these cases, the PQQ triesters were suspended in physiological saline containing 1% Tween 80 and administered to the rats. 1.2 ml of physiological saline was intraperitoneally administered to the rats of group B in place of PQQ triesters. Furthermore, after 20 minutes, 1.2 ml of a solution of 2 g of D-galactosamine in 10 ml of physiological saline was subcutaneously injected to the rats of groups B-H. Neither PQQ triesters nor D-galactosamine were administered to the rats of group A.
After 23 hours from administration of D-galactosamine, blood was collected from abdominal main artery and serum was obtained by centrifugation therefrom.
GPT, GOT and amount of total bilirubin in the serum were measured by clinical examination reagent (trademark: FUJI DRYCHEMSLIDE manufactured by Fuji Photo Film Co., Ltd.). The results are shown in Table 7 by average value of five rats.

Solubility = type: physicochemical
[3] = bovine, not told, 960 min
Protocol: Each compound dissolved in 10 mM HEPES buffer (containing 1%DMSO in the case of PQQ triesters) was put in an apparatus for measurement of membrane permeation constant and left to stand for 16 hours at 35 ° C. and then amount of the compound which migrated was measured by ultraviolet absorption (243 nm for PQQ 2Na and 255 nm for PQQ triester) to obtain membrane permeation constant.

mice = experiment: Kidney toxicity (2) determined by blood examination; type: in vivo, mouse; conditions: average of eight mice; for Creatinine in serum: None: 0.8; for Urea nitrogen in serum: None: 23; for Glucose in serum: None: 93
Protocol: (4) Kidney toxicity (2) determined by blood examination:
The dosage per kg of body weight of mouse was 150, 400 mg and 100 mg.
After lapse of one day from the administration, the mice were fasted (only water was given) and then, after 15 hours, blood was collected and serum was obtained therefrom. Glucose, urea nitrogen and creatinine in the serum were examined by clinical examination reagent (trademark : FUJI DRYCHEMSLIDE manufactured by Fuji Photo Film Co., Ltd.). The results are shown by average value of eight mice in Table 4.

C=CCOC(=O)c1cc(C(=O)OCC=C)c2c(n1)C(=O)C(=O)c1cc(C(=O)OCC=C)[nH]c1-2 [PQQ triallyl ester]
mice died (male mice SPF-ICR): no mice died
Total bilirubin in serum [1]: 0.8 mg/dL
GPT in serum [1]: 371 U/l
GOT in serum [1]: 2150 U/l
Total bilirubin in serum ([2]; i.p. 2 mg/kg rat twice): 0.8 mg/dL
GPT in serum ([2]; i.p. 2 mg/kg rat twice): 538 U/l
GOT in serum ([2]; i.p. 2 mg/kg rat twice): 1132 U/l
Total bilirubin in serum ([2]; i.p. 5 mg/kg rat twice): 0.8 mg/dL
GPT in serum ([2]; i.p. 5 mg/kg rat twice): 322 U/l
GOT in serum ([2]; i.p. 5 mg/kg rat twice): 648 U/l
Total bilirubin in serum ([2]; i.p. 10 mg/kg rat twice): 0.6 mg/dL
GPT in serum ([2]; i.p. 10 mg/kg rat twice): 120 U/l
GOT in serum ([2]; i.p. 10 mg/kg rat twice): 480 U/l
Solubility (Solubility; acetone): Very soluble
Solubility (Solubility; ethanol): Very soluble
Solubility (Solubility; methanol): Very soluble
Solubility (Solubility; water): hardly soluble
Membrane permeation constant [3]: 2.42 ± 0.60 10^-7 cm^2 · sec^-1
membrane permeation constant relative to that of PQQ.2Na [3]: 3-4 times

COC(=O)c1cc(C(=O)OC)c2c(n1)C(=O)C(=O)c1cc(C(=O)OC)[nH]c1-2 [PQQ trimethyl ester]
mice died (male mice SPF-ICR): no mice died
Creatinine in serum (mice; 150 mg/kg): 0.9 mg/dL
Urea nitrogen in serum (mice; 150 mg/kg): 22 mg/dL
Glucose in serum (mice; 150 mg/kg): 72 mg/dL
Creatinine in serum (mice; 400 mg/kg): 0.7 mg/dL
Urea nitrogen in serum (mice; 400 mg/kg): 20 mg/dL
Glucose in serum (mice; 400 mg/kg): 55 mg/dL
Creatinine in serum (mice; 1000 mg/kg): 0.7 mg/dL
Urea nitrogen in serum (mice; 1000 mg/kg): 17 mg/dL
Glucose in serum (mice; 1000 mg/kg): 60 mg/dL
Total bilirubin in serum [1]: 0.7 mg/dL
GPT in serum [1]: 505 U/l
GOT in serum [1]: 2193 U/l
Total bilirubin in serum ([2]; i.p. 2 mg/kg rat twice): 0.9 mg/dL
GPT in serum ([2]; i.p. 2 mg/kg rat twice): 447 U/l
GOT in serum ([2]; i.p. 2 mg/kg rat twice): 970 U/l
Total bilirubin in serum ([2]; i.p. 5 mg/kg rat twice): 0.5 mg/dL
GPT in serum ([2]; i.p. 5 mg/kg rat twice): 182 U/l
GOT in serum ([2]; i.p. 5 mg/kg rat twice): 544 U/l
Total bilirubin in serum ([2]; i.p. 10 mg/kg rat twice): 0.7 mg/dL
GPT in serum ([2]; i.p. 10 mg/kg rat twice): 388 U/l
GOT in serum ([2]; i.p. 10 mg/kg rat twice): 833 U/l
Membrane permeation constant [3]: 1.41 ± 0.48 10^-7 cm^2 · sec^-1
membrane permeation constant relative to that of PQQ.2Na [3]: about 2 times
